Measurements from PubChem BioAssay (NCI).
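Step 1: Grow cells in 96-well plates. Step 2: Expose to compound for 48 hours at 5 concentrations. Step 3: Interpolate endpoints linearly; if unreached, use highest concentration. TGI: total growth inhibition.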

Experiments:
Assay in all cases: NCI tumour cell line growth inhibition, 48 h
HL-60(TB) leukemia = system: HL-60(TB) leukemia
SF-268 CNS = system: SF-268 CNS
OVCAR-4 ovarian = system: OVCAR-4 ovarian
SF-295 CNS = system: SF-295 CNS
U251 CNS = system: U251 CNS
EKVX NSCLC = system: EKVX NSCLC
MDA-N = system: MDA-N
MOLT-4 leukemia = system: MOLT-4 leukemia
RXF-631 renal = system: RXF-631 renal
MDA-MB-435 = system: MDA-MB-435
SNB-78 CNS = system: SNB-78 CNS
ACHN renal = system: ACHN renal
CAKI-1 renal = system: CAKI-1 renal
HOP-62 NSCLC = system: HOP-62 NSCLC
RXF 393 renal = system: RXF 393 renal
IGROV1 ovarian = system: IGROV1 ovarian
SNB-19 CNS = system: SNB-19 CNS
HCC-2998 colon = system: HCC-2998 colon
LOX IMVI melanoma = system: LOX IMVI melanoma
NCI-H522 lung = system: NCI-H522 lung
786-0 renal = system: 786-0 renal
SK-MEL-2 melanoma = system: SK-MEL-2 melanoma
M14 melanoma = system: M14 melanoma
NCI-H226 lung = system: NCI-H226 lung
OVCAR-5 ovarian = system: OVCAR-5 ovarian
SK-OV-3 ovarian = system: SK-OV-3 ovarian
SK-MEL-28 melanoma = system: SK-MEL-28 melanoma
OVCAR-3 ovarian = system: OVCAR-3 ovarian
MALME-3M melanoma = system: MALME-3M melanoma
SN12C renal = system: SN12C renal
MCF7 breast = system: MCF7 breast
NCI/ADR-RES ovarian = system: NCI/ADR-RES ovarian
PC-3 prostate = system: PC-3 prostate
SW-620 colon = system: SW-620 colon
NCI-H23 lung = system: NCI-H23 lung
HS 578T breast = system: HS 578T breast
UACC-62 melanoma = system: UACC-62 melanoma
SNB-75 CNS = system: SNB-75 CNS
MDA-MB-231 breast = system: MDA-MB-231 breast
A498 renal = system: A498 renal
UO-31 renal = system: UO-31 renal
DLD-1 colon = system: DLD-1 colon
A549 NSCLC = system: A549 NSCLC
UACC-257 melanoma = system: UACC-257 melanoma
K-562 leukemia = system: K-562 leukemia
HCT-116 colon = system: HCT-116 colon
HOP-92 NSCLC = system: HOP-92 NSCLC
T-47D breast = system: T-47D breast
HCT-15 colon = system: HCT-15 colon
NCI-H460 lung = system: NCI-H460 lung
TK-10 renal = system: TK-10 renal
KM12 colon = system: KM12 colon
HT29 colon = system: HT29 colon
DMS 273 small cell lung = system: DMS 273 small cell lung
DMS 114 small cell lung = system: DMS 114 small cell lung
CCRF-CEM leukemia = system: CCRF-CEM leukemia
SK-MEL-5 melanoma = system: SK-MEL-5 melanoma
RPMI-8226 leukemia = system: RPMI-8226 leukemia
SR leukemia = system: SR leukemia
DU-145 prostate = system: DU-145 prostate
COLO 205 colon = system: COLO 205 colon
OVCAR-8 ovarian = system: OVCAR-8 ovarian
SF-539 CNS = system: SF-539 CNS
M19-MEL melanoma = system: M19-MEL melanoma
HOP-18 NSCLC = system: HOP-18 NSCLC

**Q.** How did the TGI (HL-60(TB) leukemia) turn out when `Cc1nc2c(n1-c1ccc(Br)cc1)C(=O)c1ccccc1C2=O` was run?
**A.** 18 µM

**Q.** And the TGI (SF-268 CNS)?
**A.** > 100 µM

**Q.** And the TGI (OVCAR-4 ovarian)?
**A.** > 100 µM

**Q.** And the TGI (SF-295 CNS)?
**A.** > 59.6 µM

**Q.** What about the TGI (U251 CNS) of the same compound?
**A.** > 43.6 µM

**Q.** What about the TGI (EKVX NSCLC) of the same compound?
**A.** > 100 µM

**Q.** And the TGI (MDA-N)?
**A.** > 100 µM

**Q.** What about the TGI (MOLT-4 leukemia) of the same compound?
**A.** > 100 µM

**Q.** What about the TGI (RXF-631 renal) of the same compound?
**A.** > 100 µM

**Q.** And the TGI (MDA-MB-435)?
**A.** 23.3 µM

**Q.** What about the TGI (SNB-78 CNS) of the same compound?
**A.** > 100 µM

**Q.** And the TGI (ACHN renal)?
**A.** > 100 µM

**Q.** And the TGI (CAKI-1 renal)?
**A.** > 100 µM

**Q.** And the TGI (HOP-62 NSCLC)?
**A.** > 100 µM

**Q.** What about the TGI (RXF 393 renal) of the same compound?
**A.** 69.9 µM

**Q.** And the TGI (IGROV1 ovarian)?
**A.** > 64.4 µM

**Q.** And the TGI (SNB-19 CNS)?
**A.** > 39.4 µM

**Q.** And the TGI (HCC-2998 colon)?
**A.** > 100 µM

**Q.** And the TGI (LOX IMVI melanoma)?
**A.** > 100 µM

**Q.** What about the TGI (NCI-H522 lung) of the same compound?
**A.** > 79.2 µM

**Q.** And the TGI (786-0 renal)?
**A.** > 71.1 µM

**Q.** And the TGI (SK-MEL-2 melanoma)?
**A.** > 100 µM

**Q.** And the TGI (M14 melanoma)?
**A.** > 100 µM

**Q.** And the TGI (NCI-H226 lung)?
**A.** > 100 µM

**Q.** What about the TGI (OVCAR-5 ovarian) of the same compound?
**A.** > 100 µM

**Q.** And the TGI (SK-OV-3 ovarian)?
**A.** 97 µM

**Q.** And the TGI (SK-MEL-28 melanoma)?
**A.** > 100 µM

**Q.** What about the TGI (OVCAR-3 ovarian) of the same compound?
**A.** 31.3 µM

**Q.** What about the TGI (MALME-3M melanoma) of the same compound?
**A.** > 67.2 µM

**Q.** And the TGI (SN12C renal)?
**A.** > 100 µM

**Q.** And the TGI (MCF7 breast)?
**A.** > 100 µM

**Q.** And the TGI (NCI/ADR-RES ovarian)?
**A.** > 100 µM

**Q.** And the TGI (PC-3 prostate)?
**A.** 51 µM

**Q.** What about the TGI (SW-620 colon) of the same compound?
**A.** > 100 µM

**Q.** And the TGI (NCI-H23 lung)?
**A.** > 100 µM

**Q.** What about the TGI (HS 578T breast) of the same compound?
**A.** 50 µM

**Q.** What about the TGI (UACC-62 melanoma) of the same compound?
**A.** > 85.1 µM

**Q.** What about the TGI (SNB-75 CNS) of the same compound?
**A.** > 62.1 µM

**Q.** What about the TGI (MDA-MB-231 breast) of the same compound?
**A.** > 100 µM

**Q.** What about the TGI (A498 renal) of the same compound?
**A.** > 100 µM

**Q.** What about the TGI (UO-31 renal) of the same compound?
**A.** > 40.6 µM

**Q.** What about the TGI (DLD-1 colon) of the same compound?
**A.** > 100 µM

**Q.** And the TGI (A549 NSCLC)?
**A.** > 100 µM

**Q.** And the TGI (UACC-257 melanoma)?
**A.** > 100 µM

**Q.** What about the TGI (K-562 leukemia) of the same compound?
**A.** > 100 µM

**Q.** What about the TGI (HCT-116 colon) of the same compound?
**A.** > 74 µM

**Q.** And the TGI (HOP-92 NSCLC)?
**A.** 66 µM

**Q.** And the TGI (T-47D breast)?
**A.** > 100 µM

**Q.** What about the TGI (HCT-15 colon) of the same compound?
**A.** > 100 µM

**Q.** And the TGI (NCI-H460 lung)?
**A.** > 40.9 µM

**Q.** What about the TGI (TK-10 renal) of the same compound?
**A.** > 100 µM

**Q.** What about the TGI (KM12 colon) of the same compound?
**A.** > 100 µM

**Q.** What about the TGI (HT29 colon) of the same compound?
**A.** > 100 µM

**Q.** And the TGI (DMS 273 small cell lung)?
**A.** > 100 µM

**Q.** And the TGI (DMS 114 small cell lung)?
**A.** > 100 µM

**Q.** And the TGI (CCRF-CEM leukemia)?
**A.** > 100 µM

**Q.** What about the TGI (SK-MEL-5 melanoma) of the same compound?
**A.** > 100 µM

**Q.** And the TGI (RPMI-8226 leukemia)?
**A.** > 100 µM

**Q.** And the TGI (SR leukemia)?
**A.** > 100 µM

**Q.** And the TGI (DU-145 prostate)?
**A.** > 100 µM

**Q.** What about the TGI (COLO 205 colon) of the same compound?
**A.** > 100 µM

**Q.** And the TGI (OVCAR-8 ovarian)?
**A.** > 70.1 µM

**Q.** What about the TGI (SF-539 CNS) of the same compound?
**A.** > 65.2 µM

**Q.** What does the source list for `CC(C)(C)c1ccc2c(c1)S(=O)(=O)Nc1cccc(c1)NS(=O)(=O)c1cc(C(C)(C)C)ccc1OCCOCCO2`?
**A.** TGI (SF-268 CNS): > 100 µM; TGI (OVCAR-4 ovarian): > 100 µM; TGI (SF-295 CNS): > 100 µM; TGI (U251 CNS): > 100 µM; TGI (EKVX NSCLC): > 100 µM; TGI (MOLT-4 leukemia): > 100 µM; TGI (RXF-631 renal): > 100 µM; TGI (SNB-78 CNS): > 100 µM; TGI (ACHN renal): > 100 µM; TGI (CAKI-1 renal): > 100 µM; TGI (HOP-62 NSCLC): > 100 µM; TGI (RXF 393 renal): > 100 µM; TGI (IGROV1 ovarian): > 100 µM; TGI (SNB-19 CNS): > 100 µM; TGI (HCC-2998 colon): > 100 µM; TGI (LOX IMVI melanoma): > 100 µM; TGI (786-0 renal): > 100 µM; TGI (SK-MEL-2 melanoma): > 100 µM; TGI (M14 melanoma): > 100 µM; TGI (NCI-H226 lung): > 100 µM; TGI (OVCAR-5 ovarian): > 100 µM; TGI (SK-OV-3 ovarian): > 100 µM; TGI (SK-MEL-28 melanoma): > 100 µM; TGI (M19-MEL melanoma): > 100 µM; TGI (OVCAR-3 ovarian): > 100 µM; TGI (MALME-3M melanoma): > 100 µM; TGI (SN12C renal): > 100 µM; TGI (SW-620 colon): > 100 µM; TGI (NCI-H23 lung): > 100 µM; TGI (UACC-62 melanoma): > 100 µM; TGI (SNB-75 CNS): > 100 µM; TGI (A498 renal): > 100 µM; TGI (UO-31 renal): > 100 µM; TGI (DLD-1 colon): > 100 µM; TGI (A549 NSCLC): > 100 µM; TGI (UACC-257 melanoma): > 100 µM; TGI (HOP-18 NSCLC): > 100 µM; TGI (K-562 leukemia): > 100 µM; TGI (HCT-116 colon): > 100 µM; TGI (HOP-92 NSCLC): > 100 µM; TGI (HCT-15 colon): > 100 µM; TGI (NCI-H460 lung): > 100 µM; TGI (TK-10 renal): > 100 µM; TGI (KM12 colon): > 100 µM; TGI (HT29 colon): > 100 µM; TGI (DMS 273 small cell lung): > 100 µM; TGI (DMS 114 small cell lung): > 100 µM; TGI (SK-MEL-5 melanoma): > 100 µM; TGI (RPMI-8226 leukemia): > 100 µM; TGI (COLO 205 colon): > 100 µM; TGI (OVCAR-8 ovarian): > 100 µM; TGI (SF-539 CNS): > 100 µM
